From patent US12383556B2, “Methods of treating Sjögren's syndrome using a Bruton's tyrosine kinase inhibitor” (NOVARTIS AG, priority 2019, dated 2025)
Read-outs that look alike come from different tables or passages of the source.

Assay: First-in-human Part 2 multiple ascending dose q.d. blood and urine PK
Assay type: in vivo
Settings: human, oral; for Cmax: read-out: Cmax; for MRT: read-out: MRT; for Vd/F: read-out: Vss/F; for half-life: read-out: T½ (converted)
From the text: First-in-human study in up to approximately 168 healthy volunteers (HVs), of which 64 (in Parts 2 & 4) had asymptomatic atopic diathesis. • Part 1 was a double-blind (subject and investigator blind, sponsor unblinded), placebo-controlled single ascending dose (SAD) escalation study of 10 cohorts (N=80) • Part 2 was a double-blind (subject and investigator blind, sponsor unblinded), placebo-controlled multiple ascending dose (MAD) (13 doses over 12 days) escalation study employing once daily dosing in 6 cohorts in healthy volunteers with asymptomatic atopic diathesis (N=48) • Part 3 was a single dose open-label crossover food effect study in 12 HVs • Part 4 was a double-blind (subject and investigator blind, sponsor unblinded), placebo-controlled multiple dose (25 doses over 12 days) study employing twice daily dosing in 2 cohorts of healthy volunteers with asymptomatic atopic diathesis (N=16)
In Parts 2 and 4, subjects were admitted on Day −2 or −1 for baseline safety assessments and to confirm eligibility. Eligible subjects received the first dose of compound (I) under fasting conditions on Day 1, and continued to take study medication under fasting conditions up to and including Day 12. Subjects were domiciled from Day −2 or −1 until the morning of Day 16, which equals 96 hours after the last dose of compound (I) was received. In Parts 2 and 4, the study medication was given once daily and twice daily respectively (details are found in the schedule of assessments).
Subjects were assigned to one of the following 6 cohorts. In each cohort, 8 subjects were randomized to either compound (I) or matching placebo in a 6:2 ratio. • Cohort 1: multiple oral doses of 10 mg compound (I) or matching placebo • Cohort 2: multiple oral doses of 25 mg compound (I) or matching placebo • Cohort 3: multiple oral doses of 50 mg compound (I) or matching placebo • Cohort 4: multiple oral doses of 100 mg compound (I) or matching placebo • Cohort 5: multiple oral doses of 400 mg compound (I) or matching placebo • Cohort 6: multiple oral doses of up to 600 mg compound (I) or matching placebo
Pharmacokinetic samples were obtained in blood and evaluated in all subjects at all dose levels. The samples from placebo subjects were not analyzed. The samples for PK assessments from subjects were collected at time points defined in the study. Compound (I) concentrations were determined in blood by a validated LC-MS/MS method.

[1] = blood, 10 mg, 10 mg qd, Day 1, blood, Median (Min-Max)
[2] = blood, 10 mg, 10 mg qd, Day 12, blood, Median (Min-Max)
[3] = blood, 25 mg, 25 mg qd, Day 1, blood, Median (Min-Max)
[4] = blood, 25 mg, 25 mg qd, Day 12, blood, Median (Min-Max)
[5] = blood, 50 mg, 50 mg qd, Day 1, blood, Median (Min-Max)
[6] = blood, 50 mg, 50 mg qd, Day 12, blood, Median (Min-Max)
[7] = blood, 100 mg, 100 mg qd, Day 12, blood, Median (Min-Max)
[8] = blood, 400 mg, 400 mg qd, Day 12, blood, Median (Min-Max)
[9] = blood, 600 mg, 600 mg qd, Day 12, blood, Median (Min-Max)

Structure (SMILES): C=CC(=O)N(C)CCOc1c(N)ncnc1-c1cc(F)cc(NC(=O)c2ccc(C3CC3)cc2F)c1C [Compound of Formula (I), N-(3-(6-Amino-5-(2-(N-methylacrylamido)ethoxy)pyrimidin-4-yl)-5-fluoro-2-methylphenyl)-4-cyclopropyl-2-fluorobenzamide]
- AUC(0-t) (blood, 10 mg, 10 mg qd, Day 1, blood, Median (Min-Max), read-out: AUClast): 4.4 ng·h/mL
- Cmax [1]: 8.03 ng/mL
- MRT [1]: 0.766 h
- Vd/F (blood, 10 mg, 10 mg qd, Day 12, blood, Mean ± SD): 554 ± 90.4 L
- Tmax [2]: 37.5 min
- Cmax [2]: 17.2 ng/mL
- Vd/F [2]: 562 L
- AUC(0-t) (blood, 25 mg, 25 mg qd, Day 1, blood, Mean ± SD, read-out: AUC0-24): 44.9 ± 25.2 ng·h/mL
- AUC(0-t) (blood, 25 mg, 25 mg qd, Day 1, blood, Mean ± SD, read-out: AUClast): 43.9 ± 24.6 ng·h/mL
- MRT (blood, 25 mg, 25 mg qd, Day 1, blood, Mean ± SD): 1.18 ± 0.49 h
- AUC(0-t) (blood, 25 mg, 25 mg qd, Day 1, blood, Median (Min-Max), read-out: AUC0-24): 46.6 ng·h/mL
- AUC(0-t) (blood, 25 mg, 25 mg qd, Day 1, blood, Median (Min-Max), read-out: AUClast): 45.5 ng·h/mL
- Cmax [3]: 37.3 ng/mL
- MRT [3]: 1.17 h
- Vd/F (blood, 25 mg, 25 mg qd, Day 12, blood, Mean ± SD): 407 ± 208 L
- Cmax [4]: 78.4 ng/mL
- Vd/F [4]: 334 L
- AUC(0-t) (blood, 50 mg, 50 mg qd, Day 1, blood, Mean ± SD, read-out: AUC0-24): 116 ± 32.9 ng·h/mL
- AUC(0-t) (blood, 50 mg, 50 mg qd, Day 1, blood, Mean ± SD, read-out: AUClast): 113 ± 34.2 ng·h/mL
- MRT (blood, 50 mg, 50 mg qd, Day 1, blood, Mean ± SD): 2.53 ± 1.17 h
- Tmax [5]: 30 min
- AUC(0-t) (blood, 50 mg, 50 mg qd, Day 1, blood, Median (Min-Max), read-out: AUC0-24): 107 ng·h/mL
- AUC(0-t) (blood, 50 mg, 50 mg qd, Day 1, blood, Median (Min-Max), read-out: AUClast): 103 ng·h/mL
- Cmax [5]: 70.1 ng/mL
- MRT [5]: 2.44 h
- Vd/F (blood, 50 mg, 50 mg qd, Day 12, blood, Mean ± SD): 431 ± 172 L
- Tmax [6]: 60 min
- Vd/F [6]: 346 L
- MRT (blood, 100 mg, 100 mg qd, Day 1, blood, Median (Min-Max)): 2.16 h
- Vd/F (blood, 100 mg, 100 mg qd, Day 12, blood, Mean ± SD): 1910 ± 2780 L
- Cmax [7]: 205 ng/mL
- Vd/F [7]: 338 L
- AUC(0-t) (blood, 400 mg, 400 mg qd, Day 1, blood, Median (Min-Max), read-out: AUC0-24): 826 ng·h/mL
- AUC(0-t) (blood, 400 mg, 400 mg qd, Day 1, blood, Median (Min-Max), read-out: AUClast): 826 ng·h/mL
- MRT (blood, 400 mg, 400 mg qd, Day 1, blood, Median (Min-Max)): 2.94 h
- Vd/F (blood, 400 mg, 400 mg qd, Day 12, blood, Mean ± SD): 4400 ± 3340 L
- Cmax [8]: 476 ng/mL
- Vd/F [8]: 3440 L
- AUC(0-t) (blood, 600 mg, 600 mg qd, Day 1, blood, Median (Min-Max), read-out: AUC0-24): 932 ng·h/mL
- AUC(0-t) (blood, 600 mg, 600 mg qd, Day 1, blood, Median (Min-Max), read-out: AUClast): 931 ng·h/mL
- MRT (blood, 600 mg, 600 mg qd, Day 1, blood, Median (Min-Max)): 3.22 h
- Vd/F (blood, 600 mg, 600 mg qd, Day 12, blood, Mean ± SD): 7130 ± 5120 L
- Cmax [9]: 475 ng/mL
- Vd/F [9]: 7070 L
- concentration at 24 h (blood, multiple doses, typical, read-out: blood concentration at 24 hours post last dose): < 1 ng/mL
- AUC(0-inf) (whole blood, 10 mg, 10 mg qd, Day 12, blood, Mean ± SD): 24.7 ± 3.65 ng·h/mL
- AUC(0-t) (whole blood, 10 mg, 10 mg qd, Day 12, blood, Mean ± SD, read-out: AUC0-24): 24 ± 3.6 ng·h/mL
- AUC(0-t) (whole blood, 10 mg, 10 mg qd, Day 12, blood, Mean ± SD, read-out: AUClast): 22.9 ± 3.5 ng·h/mL
- AUC(0-inf) (whole blood, 10 mg, 10 mg qd, Day 12, blood, Median (Min-Max)): 24.3 ng·h/mL
- AUC(0-t) (whole blood, 10 mg, 10 mg qd, Day 12, blood, Median (Min-Max), read-out: AUC0-24): 23.6 ng·h/mL
- AUC(0-t) (whole blood, 10 mg, 10 mg qd, Day 12, blood, Median (Min-Max), read-out: AUClast): 22.4 ng·h/mL
- AUC(0-inf) (whole blood, 25 mg, 25 mg qd, Day 12, blood, Mean ± SD): 117 ± 60.4 ng·h/mL
- AUC(0-t) (whole blood, 25 mg, 25 mg qd, Day 12, blood, Mean ± SD, read-out: AUC0-24): 117 ± 60.9 ng·h/mL
- AUC(0-t) (whole blood, 25 mg, 25 mg qd, Day 12, blood, Mean ± SD, read-out: AUClast): 114 ± 59.7 ng·h/mL
- AUC(0-inf) (whole blood, 25 mg, 25 mg qd, Day 12, blood, Median (Min-Max)): 102 ng·h/mL
- AUC(0-t) (whole blood, 25 mg, 25 mg qd, Day 12, blood, Median (Min-Max), read-out: AUC0-24): 101 ng·h/mL
- AUC(0-t) (whole blood, 25 mg, 25 mg qd, Day 12, blood, Median (Min-Max), read-out: AUClast): 98.2 ng·h/mL
- AUC(0-inf) (whole blood, 50 mg, 50 mg qd, Day 12, blood, Mean ± SD): 209 ± 80 ng·h/mL
- AUC(0-t) (whole blood, 50 mg, 50 mg qd, Day 12, blood, Mean ± SD, read-out: AUC0-24): 209 ± 80.2 ng·h/mL
- AUC(0-t) (whole blood, 50 mg, 50 mg qd, Day 12, blood, Mean ± SD, read-out: AUClast): 207 ± 80.4 ng·h/mL
- AUC(0-inf) (whole blood, 50 mg, 50 mg qd, Day 12, blood, Median (Min-Max)): 181 ng·h/mL
- AUC(0-t) (whole blood, 50 mg, 50 mg qd, Day 12, blood, Median (Min-Max), read-out: AUC0-24): 181 ng·h/mL
- AUC(0-t) (whole blood, 50 mg, 50 mg qd, Day 12, blood, Median (Min-Max), read-out: AUClast): 179 ng·h/mL
- AUC(0-inf) (whole blood, 100 mg, 100 mg qd, Day 12, blood, Mean ± SD): 577 ± 207 ng·h/mL
- AUC(0-inf) (whole blood, 100 mg, 100 mg qd, Day 12, blood, Median (Min-Max)): 595 ng·h/mL
- AUC(0-t) (whole blood, 100 mg, 100 mg qd, Day 12, blood, Median (Min-Max), read-out: AUC0-24): 429 ng·h/mL
- AUC(0-t) (whole blood, 100 mg, 100 mg qd, Day 12, blood, Median (Min-Max), read-out: AUClast): 444 ng·h/mL
- AUC(0-inf) (whole blood, 400 mg, 400 mg qd, Day 12, blood, Mean ± SD): 1330 ± 608 ng·h/mL
- AUC(0-inf) (whole blood, 400 mg, 400 mg qd, Day 12, blood, Median (Min-Max)): 1210 ng·h/mL
- AUC(0-t) (whole blood, 400 mg, 400 mg qd, Day 12, blood, Median (Min-Max), read-out: AUC0-24): 1140 ng·h/mL
- AUC(0-t) (whole blood, 400 mg, 400 mg qd, Day 12, blood, Median (Min-Max), read-out: AUClast): 1180 ng·h/mL
- AUC(0-inf) (whole blood, 600 mg, 600 mg qd, Day 12, blood, Mean ± SD): 1260 ± 338 ng·h/mL
- AUC(0-inf) (whole blood, 600 mg, 600 mg qd, Day 12, blood, Median (Min-Max)): 1090 ng·h/mL
- AUC(0-t) (whole blood, 600 mg, 600 mg qd, Day 12, blood, Median (Min-Max), read-out: AUC0-24): 1060 ng·h/mL
- half-life (whole blood, 10 mg qd, Day 12, blood, Median (Min-Max)): 57.7 min
- half-life (whole blood, 25 mg qd, Day 12, blood, Median (Min-Max)): 69 min
- half-life (whole blood, 50 mg qd, Day 12, blood, Median (Min-Max)): 69 min
